Patent US20220249435A1, “Applications of Butyrolactone-I in Preparing Medicine for Preventing Neuroinflammation and/or Memory and Cognitive Disorders” (priority 2021, published 2022)

Key:
Type in all cases: in vivo
[1] = system: zebrafish intestinal flora; experiment: Intestinal flora of zebrafish by 16S V3-V4 sequencing
Protocol: (§1) 75 zebrafish (3.0±0.4 cm) are randomly classified into control group, AlCl3 model group and 3 experimental groups with 15 zebrafish in each group, zebrafish in the experimental group are fed with food with butyrolactone-I content of 25 mg/kg, 50 mg/kg and 100 mg/kg for 20 days. zebrafish in control group and model group are fed the same amount of normal food respectively. 20 days later, after anesthesia, zebrafish in model group and experimental group are injected with AlCl3 solution (4.2 mg/mL, 5μL, pH=5.0±0.2) intraperitoneally, while zebrafish in the control group are injected with the same amount of normal saline. Memory test is performed in T maze 24 hours after injection.
(§2) 24 hours after the behavior test, the fish are euthanized, and every five fish in each group is a sample. The brain, surrounding tissues and intestines are collected and stored in a refrigerator at −80° C. All samples (except intestinal tract) are homogenized in phosphate buffer solution for further analysis. Centrifuging is conducted at 4° C. for 15 min at 1500 r/min, and the supernatant is collected. The changes of GSH level and AChE activity of tissue biomarkers are detected by using brain supernatant of zebrafish. In addition, brain samples and supernatant of peripheral tissues of zebrafish are used to determine the levels of IL-1β and TNF-α. The results are expressed by the activity of AChE per gram of protein and the amount of glutathione per gram of protein. According to OD value, the regression equation of IL-1β and TNF-α standard curves is calculated, and the logistic curve (4 parameters each) is used as a fitting model.
Genomic DNA is extracted from 15 intestinal samples by proteinase K cleavage method, and sent to TinyGene Bio-Tech (ShangHai) Co., Ltd. for sequencing. The selected target gene is 16S V3-V4. According to the requirements of illumina high-throughput sequencing, two-way sequencing is carried out, and the target region and the fusion primer with “5′ linker-barcode-sequencing primer-specific primer-3′” are designed. The fusion primer comprises the following primers: […]
The library is constructed by a two-step PCR amplification method. First, specific primers (hereinafter described as inner primers) are used to amplify the target fragments, and then gel recovery is carried out on the target fragments. Then, the recovered products are used as templates for secondary PCR amplification (hereinafter described as outer primers for amplification). The purpose of amplification is to add the linker, sequencing primer and barcode needed by illumina platform sequencing to both ends of the target fragment.
AxyPrepDNA gel recovery kit is used for recovery, FTC-3000™ real-time PCR is used for real-time fluorescence quantification, and then Illumina high-throughput sequencing and bioinformatics analysis are performed. The length of the sequence is 450 bp, and the sequencing result is the original data, and quality of the sequence is evaluated and optimized. Trimmomatic is used for sequence filtering and FLASH for jointing. Then ambiguity, homology and some chimeras generated in PCR are screened by motherur V. 1.39.5, and the optimized sequence for subsequent clustering OTU (operational taxonomic unit) and species information analysis is obtained. Using the software USEARCH, the jointed sequences are clustered into OTU (at 97% similarity level) for later analysis.
VENN diagram may be used to count the number of common and unique OTU in multiple samples, and may intuitively show the similarity and overlap of OTU numbers of environmental samples. Usually the OTU sample table with a similar level of 97% is selected for analysis.
Alpha diversity analysis reflects the richness and diversity of communities in the sample, using motheru (http://www.mothur.org/wiki/Schloss SOP#Alpha diversity) to calculate shannon, simpson, chao and ace indices, and using R (3.4.1) language tool to make charts. […]

IL-1β = experiment: Level of inflammatory factor IL-1β in brain and peripheral tissues of zebrafish
Protocol: as §1, §2
Graphpad Prism 8.0 is used for mapping, and One-way ANOVA and Dunnett's post hoc test are used to evaluate the differences between model group and control group, experimental group and model group.

TNF-α = experiment: Level of inflammatory factor TNF-α in brain tissues of zebrafish; conditions: AlCl3 model, FIGS. 3E-3F
Protocol: as §1
as §2, with “In addition, brain samples and supernatant of peripheral tissues of zebrafish are used to determine the levels of IL-1β and TNF-α. The results are expressed by the activity of AChE per gram of protein and the amount of glutathione per gram of protein.” left out, “model. […]” for “model.”

zebrafish = experiment: T maze memory test in AlCl3-injected zebrafish
Protocol: Adult wild AB zebrafish (male: female ratio is 50%: 50%) with good growth of about 6-8 months are acclimated in a 50 L water tank for 2 weeks, the temperature is 25±2° C., the light-dark cycle is 14 hours: 10 hours, and Artemia larvae are fed at 9 am and 2 pm respectively.
as §1
4 days before intraperitoneal injection, 6 fish are randomly selected from each group, and each day, they are trained separately in T maze for 5 minutes to find the eutrophic EC area. […] After 4 days of training, on the 5th day (24 hours after intraperitoneal injection), the behavior of the trained fish is tested in T maze. If the fish enters EC area and stays for more than 30 s, a valid incubation period is recorded. […] The behavioral test is conducted between 10 am and 1 pm. The Microsoft LifeCam Studio 1080p HD camera and powersoft software (Powersoft Co., Ltd., Hong Kong, China) are used to record videos. Supersys software is used to analyze the latent time (s), average swimming speed (cm/s) and the times of entering the EC zone for the first time.

AChE = AChE activity in brain tissue of zebrafish; conditions: food with 25, 50, 100 mg/kg for 20 days; AlCl3 intraperitoneally; brain supernatant; FIG. 3B
Protocol: as §1
as §2, with “In addition, brain samples and supernatant of peripheral tissues of zebrafish are used to determine the levels of IL-1β and TNF-α. The results are expressed by the activity of AChE per gram of protein and the amount of glutathione per gram of protein.” left out, “model. […]” for “model.”

GSH = GSH level in brain tissue of zebrafish; conditions: food with 25, 50, 100 mg/kg for 20 days; AlCl3 intraperitoneally; brain supernatant; FIG. 3A
Protocol: as §1
as §2, with “In addition, brain samples and supernatant of peripheral tissues of zebrafish are used to determine the levels of IL-1β and TNF-α. The results are expressed by the activity of AChE per gram of protein and the amount of glutathione per gram of protein.” left out, “model. […]” for “model.”

[2] = phylum level, oral, AlCl3 model

## COC(=O)[C@@]1(Cc2ccc(O)c(CC=C(C)C)c2)OC(=O)C(O)=C1c1ccc(O)cc1 [butyrolactone-I]
[1]; genus level, oral, AlCl3 model
  abundance of Alpinimonas: down-regulate
  abundance of Bacillus: up-regulate
  abundance of Bosea: down-regulate
  abundance of Cetobacterium: down-regulate
  abundance of Mycobacterium: down-regulate
  abundance of Phreatobacter: down-regulate
  abundance of Singulisphaera: down-regulate
[1]; overall conclusion
  disturbance of zebrafish intestinal flora caused by aluminum trichloride: regulate the disturbance
[1]; [2]
  abundance of Chlamydiae: down-regulate
  abundance of Chloroflexi: down-regulate
  abundance of Fusobacterium: down-regulate
  abundance of Planctomycetes: down-regulate
[1]; phylum level, oral, AlCl3 model, FIGS. 4A-4B
  abundance of Phylum Firmicutes: up-regulate
IL-1β; brain, AlCl3 model, FIG. 3C
  level of inflammatory factor IL-1β in the brain of zebrafish: reduce the level
IL-1β; overall conclusion of biochemical indexes
  nerve inflammation of zebrafish caused by aluminum trichloride: obviously improve
IL-1β; peripheral tissues, AlCl3 model, FIG. 3D
  level of inflammatory factor IL-1β in peripheral tissues of zebrafish: reduce the level
TNF-α
  level of inflammatory factor TNF-α in brain tissues of zebrafish: reduce the level
zebrafish; food with 25, 50, 100 mg/kg butyrolactone-I for 20 days, AlCl3 intraperitoneally, T maze 24 hours after injection, FIG. 1A
  latent time for zebrafish to find the EC zone: shorten the latent time
zebrafish; food with 25, 50, 100 mg/kg for 20 days, AlCl3 intraperitoneally, T maze, FIG. 1B
  average swimming speed of zebrafish: increase the average swimming speed
zebrafish; food with 25, 50, 100 mg/kg for 20 days, AlCl3 intraperitoneally, T maze, FIG. 1C
  number of times that zebrafish enter the eutrophic EC zone: add the number of times
zebrafish; food with 25, 50, 100 mg/kg for 20 days, AlCl3 intraperitoneally, T maze, FIGS. 2A-2E
  lingering time of zebrafish in EC area: prolong the lingering time
zebrafish; overall conclusion of T maze test
  memory and cognitive disorder of zebrafish caused by aluminum trichloride: obviously improve
AChE
  AChE activity in brain tissue of zebrafish: inhibit AChE activity
GSH
  GSH level in brain tissue of zebrafish: increase GSH level in brain tissue of zebrafish in a dose-dependent manner
